From patent US20160060260A1, “BROMODOMAIN INHIBITORS FOR TREATING DISEASE” (Board of Regents, The University of Texas System, priority 2014, published 2016) come the findings set out here.

SMILES strings stand for the structures.

In the experiment the target is T1, Recombinant human His-tagged Trim24-PHD-bromodomain (Homo sapiens, UniProt O15164).
T1 construct: Recombinant human His-tagged Trim24-PHD-bromodomain (produced in-house); made in house
T1 sequence (O15164 824-1006 limits assumed): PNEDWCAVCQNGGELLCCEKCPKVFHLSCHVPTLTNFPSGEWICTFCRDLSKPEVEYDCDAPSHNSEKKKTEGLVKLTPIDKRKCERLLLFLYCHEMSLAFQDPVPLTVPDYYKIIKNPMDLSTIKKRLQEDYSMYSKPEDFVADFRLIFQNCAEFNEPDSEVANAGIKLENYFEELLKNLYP
Nature of the experiment: Trim24 AlphaScreen Assay. The class given is binding. Particulars: 5 nM Trim24 protein, 15 nM biotinylated H3K23ac (1-33aa) peptide. Here is the method:
Recombinant human His-tagged Trim24-PHD-bromodomain (produced in-house), biotinylated H3K23ac (1-33aa) peptide (AnaSpec, Inc.), and test compound were added to a 384-well OptiPlate (Perkin Elmer) and incubated at room temperature for one hour. The assay buffer consisted of 50 mM Hepes, pH 7.5, 100 mM NaCl, and 0.12 mM Triton X-100.
Streptavidin donor beads and nickel chelate acceptor beads, both from a Perkin Elmer AlphaScreen Histidine Detection Kit, were then added to the Optiplate to a final concentration of 10 ug/mL each. Following a 2 hour incubation at room temperature, the microplate was read on an Envision Plate Reader (Perkin Elmer). Percent of control (POC) values were calculated from the following formula:
POC=[sample signal-average background signal]/[average maximum signal−average background signal]*100
The average maximum signal was obtained from wells containing all assay components except test compound. The average background signal pertained to wells with all assay components except Trim24 and test compound. IC50 values were calculated using a four-parameter logistic curve fit.
Background: Alpha assays give light when donor and acceptor beads are brought close together.
`CC(C)c1cccc(S(=O)(=O)Nc2cc3c(cc2Oc2cccc(OCc4ccccc4)c2)n(C)c(=O)n3C)c1` [Example 32, N-(6-(3-(benzyloxy)phenoxy)-1,3-dimethyl-2-oxo-2,3-dihydro-1H-benzo[d]imidazol-5-yl)-3-isopropylbenzenesulfonamide]: the IC50 (in general, the concentration that gives 50% inhibition) was over 1000 nM.
On to `CCc1cccc(S(=O)(=O)Nc2cc3c(cc2Oc2cccc(OCc4ccccc4)c2)n(C)c(=O)n3C)c1` [Example 33, N-(6-(3-(benzyloxy)phenoxy)-1,3-dimethyl-2-oxo-2,3-dihydro-1H-benzo[d]imidazol-5-yl)-3-ethylbenzenesulfonamide], for which the IC50 was over 1000 nM.
In the case of `Cc1cccc(S(=O)(=O)Nc2cc3c(cc2Oc2cccc(OCc4ccccc4)c2)n(C)c(=O)n3C)c1` [Example 34, N-(6-(3-(benzyloxy)phenoxy)-1,3-dimethyl-2-oxo-2,3-dihydro-1H-benzo[d]imidazol-5-yl)-3-methylbenzenesulfonamide], the IC50 was in the range of 100 to 1000 nM.
As to `Cc1ccccc1S(=O)(=O)Nc1cc2c(cc1Oc1cccc(OCc3ccccc3)c1)n(C)c(=O)n2C` [Example 35, N-(6-(3-(benzyloxy)phenoxy)-1,3-dimethyl-2-oxo-2,3-dihydro-1H-benzo[d]imidazol-5-yl)-2-methylbenzenesulfonamide], the 50% inhibitory concentration (IC50) is over 1000 nM.
Regarding `Cn1c(=O)n(C)c2cc(Oc3cccc(OCc4ccccc4)c3)c(NS(=O)(=O)c3ccc4c(c3)OCO4)cc21` [Example 36, N-(6-(3-(benzyloxy)phenoxy)-1,3-dimethyl-2-oxo-2,3-dihydro-1H-benzo[d]imidazol-5-yl)benzo[d][1,3]dioxole-5-sulfonamide], the IC50 lay in the range of 100 to 1000 nM.
To `Cn1c(=O)n(C)c2cc(Oc3cccc(OCc4ccccc4)c3)c(NS(=O)(=O)c3ccccc3Br)cc21` [Example 37, N-(6-(3-(benzyloxy)phenoxy)-1,3-dimethyl-2-oxo-2,3-dihydro-1H-benzo[d]imidazol-5-yl)-2-bromobenzenesulfonamide] belongs over 1000 nM; to `Cn1c(=O)n(C)c2cc(Oc3cccc(OCc4ccccc4)c3)c(NS(=O)(=O)c3cccc(Br)c3)cc21` [Example 38, N-(6-(3-(benzyloxy)phenoxy)-1,3-dimethyl-2-oxo-2,3-dihydro-1H-benzo[d]imidazol-5-yl)-3-bromobenzenesulfonamide], over 1000 nM.
As for `Cn1cnc(S(=O)(=O)Nc2cc3c(cc2Oc2cccc(OCc4cccnc4)c2)n(C)c(=O)n3C)c1` [Example 39, N-(1,3-dimethyl-2-oxo-6-(3-(pyridin-3-ylmethoxy)phenoxy)-2,3-dihydro-1H-benzo[d]imidazol-5-yl)-1-methyl-1H-imidazole-4-sulfonamide], the figure is 100 to 1000 nM.
With `Cn1cnc(S(=O)(=O)Nc2cc3c(cc2Oc2cccc(OCc4cccc(C#N)c4)c2)n(C)c(=O)n3C)c1` [Example 40, N-(6-(3-((3-cyanobenzyl)oxy)phenoxy)-1,3-dimethyl-2-oxo-2,3-dihydro-1H-benzo[d]imidazol-5-yl)-1-methyl-1H-imidazole-4-sulfonamide], the IC50 was over 1000 nM.
As for `Cc1c(S(=O)(=O)Nc2cc3c(cc2Oc2cccc(OCc4ccccc4)c2)n(C)c(=O)n3C)cnn1C` [Example 41, N-(6-(3-(benzyloxy)phenoxy)-1,3-dimethyl-2-oxo-2,3-dihydro-1H-benzo[d]imidazol-5-yl)-1,5-dimethyl-1H-pyrazole-4-sulfonamide], the figure is 100 to 1000 nM; as for `CCn1nccc1S(=O)(=O)Nc1cc2c(cc1Oc1cccc(OCc3ccccc3)c1)n(C)c(=O)n2C` [Example 42, N-(6-(3-(benzyloxy)phenoxy)-1,3-dimethyl-2-oxo-2,3-dihydro-1H-benzo[d]imidazol-5-yl)-1-ethyl-1H-pyrazole-5-sulfonamide], 100 to 1000 nM; as for `Cn1c(=O)n(C)c2cc(Oc3cccc(OCc4ccccc4)c3)c(NS(=O)(=O)c3cccc(F)c3)cc21` [Example 43, N-(6-(3-(benzyloxy)phenoxy)-1,3-dimethyl-2-oxo-2,3-dihydro-1H-benzo[d]imidazol-5-yl)-3-fluorobenzenesulfonamide], 100 to 1000 nM.
As for `COc1cc(OC)cc(S(=O)(=O)Nc2cc3c(cc2Oc2cccc(OCc4ccccc4)c2)n(C)c(=O)n3C)c1` [Example 44, N-(6-(3-(benzyloxy)phenoxy)-1,3-dimethyl-2-oxo-2,3-dihydro-1H-benzo[d]imidazol-5-yl)-3,5-dimethoxybenzenesulfonamide], the IC50 was in the range of 100 to 1000 nM.
As for `Cc1ncc(S(=O)(=O)Nc2cc3c(cc2Oc2cccc(OCc4ccccc4)c2)n(C)c(=O)n3C)s1` [Example 47, N-(6-(3-(benzyloxy)phenoxy)-1,3-dimethyl-2-oxo-2,3-dihydro-1H-benzo[d]imidazol-5-yl)-2-methylthiazole-5-sulfonamide], the IC50 fell in the range of 100 to 1000 nM.
As to `Cc1n[nH]cc1S(=O)(=O)Nc1cc2c(cc1Oc1cccc(OCc3ccccc3)c1)n(C)c(=O)n2C` [Example 48, N-(6-(3-(benzyloxy)phenoxy)-1,3-dimethyl-2-oxo-2,3-dihydro-1H-benzo[d]imidazol-5-yl)-3-methyl-1H-pyrazole-4-sulfonamide], the IC50 lay within 100 to 1000 nM.
As for `Cc1nc(S(=O)(=O)Nc2cc3c(cc2Oc2cccc(OCc4ccccc4)c2)n(C)c(=O)n3C)c[nH]1` [Example 49, N-(6-(3-(benzyloxy)phenoxy)-1,3-dimethyl-2-oxo-2,3-dihydro-1H-benzo[d]imidazol-5-yl)-2-methyl-1H-imidazole-4-sulfonamide], the figure is 100 to 1000 nM.
With `CCn1cnc(S(=O)(=O)Nc2cc3c(cc2Oc2cccc(OCc4ccccc4)c2)n(C)c(=O)n3C)c1` [Example 50, N-(6-(3-(benzyloxy)phenoxy)-1,3-dimethyl-2-oxo-2,3-dihydro-1H-benzo[d]imidazol-5-yl)-1-ethyl-1H-imidazole-4-sulfonamide], the IC50 lay in the range of 100 to 1000 nM.
To `Cn1c(=O)n(C)c2cc(Oc3cccc(OCc4ccccc4)c3)c(NS(=O)(=O)c3cn[nH]c3)cc21` [Example 51, N-(6-(3-(benzyloxy)phenoxy)-1,3-dimethyl-2-oxo-2,3-dihydro-1H-benzo[d]imidazol-5-yl)-1H-pyrazole-4-sulfonamide] belongs 100 to 1000 nM.
As for `COc1ccccc1S(=O)(=O)Nc1cc2c(cc1Oc1cccc(OCc3ccccc3)c1)n(C)c(=O)n2C` [Example 52, N-(6-(3-(benzyloxy)phenoxy)-1,3-dimethyl-2-oxo-2,3-dihydro-1H-benzo[d]imidazol-5-yl)-2-methoxybenzenesulfonamide], the figure is 100 to 1000 nM.
To `COCCOc1cccc(Oc2cc3c(cc2NS(=O)(=O)c2cn(C)c(C)n2)n(C)c(=O)n3C)c1` [Example 53, N-(6-(3-(2-methoxyethoxy)phenoxy)-1,3-dimethyl-2-oxo-2,3-dihydro-1H-benzo[d]imidazol-5-yl)-1,2-dimethyl-1H-imidazole-4-sulfonamide] belongs 100 to 1000 nM; to `Cc1nc(S(=O)(=O)Nc2cc3c(cc2Oc2cccc(OC(C)C)c2)n(C)c(=O)n3C)cn1C` [Example 54, N-(6-(3-isopropoxyphenoxy)-1,3-dimethyl-2-oxo-2,3-dihydro-1H-benzo[d]imidazol-5-yl)-1,2-dimethyl-1H-imidazole-4-sulfonamide], 100 to 1000 nM.
Turning to `Cc1nc(S(=O)(=O)Nc2cc3c(cc2Oc2cccc(OCCCO)c2)n(C)c(=O)n3C)cn1C` [Example 55, N-(6-(3-(3-hydroxypropoxy)phenoxy)-1,3-dimethyl-2-oxo-2,3-dihydro-1H-benzo[d]imidazol-5-yl)-1,2-dimethyl-1H-imidazole-4-sulfonamide], the half-maximal inhibitory concentration (IC50) lay in the range of 100 to 1000 nM.
